# Laboratory results from paper PMC6162346, “The MALDI-TOF E2/E3 Ligase Assay as Universal Tool for Drug Discovery in the Ubiquitin Pathway” (Cell Chemical Biology, 2018).
# “And” between values parts separate entries of the source, which are not always exact repeats. Identical values can stand only once. “Also recorded” adds a separate entry of the source. Like-named read-outs stand apart in the source and are kept apart here.
# How the values were obtained:
# [1] = molecular target: T1, HOIP (Homo sapiens, UniProt Q96EP0); assay: MALDI-TOF E2/E3 ligase assay (mono-ubiquitin consumption), UBE1/UBE2L3/HOIP; type: biochemical; conditions: for remaining activity at 10 µM: read-out: Residual Activity (%), UBE1/UBE2L3/HOIP
# T1 construct: HOIP (697-1072) DU22629; GST (cleaved yes); host or cells: E. coli BL21
# T1 sequence (Q96EP0 697-1072): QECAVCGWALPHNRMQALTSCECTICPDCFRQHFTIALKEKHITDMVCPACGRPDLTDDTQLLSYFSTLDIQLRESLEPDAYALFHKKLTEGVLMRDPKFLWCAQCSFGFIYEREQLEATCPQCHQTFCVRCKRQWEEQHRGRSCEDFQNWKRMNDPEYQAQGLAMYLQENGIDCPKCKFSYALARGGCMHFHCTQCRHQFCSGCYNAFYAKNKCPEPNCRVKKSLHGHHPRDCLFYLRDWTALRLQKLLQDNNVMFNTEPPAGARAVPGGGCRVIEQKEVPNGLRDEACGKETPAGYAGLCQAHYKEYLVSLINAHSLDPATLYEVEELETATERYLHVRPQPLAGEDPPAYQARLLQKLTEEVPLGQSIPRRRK
# [2] = molecular target: T2, UBE2L3 (Homo sapiens, UniProt P68036); assay: MALDI-TOF MS of intact E2 protein incubated with inhibitor (covalent modification); type: binding; conditions: UBE2L3 3 µM, inhibitor 100 µM, 30 min, room temperature
# T2 construct: UBE2L3 P68036 UbcH7 - full length; 6His (cleaved yes); host or cells: E. coli BL21 DE3 codon plus
# T2 sequence (P68036 whole entry): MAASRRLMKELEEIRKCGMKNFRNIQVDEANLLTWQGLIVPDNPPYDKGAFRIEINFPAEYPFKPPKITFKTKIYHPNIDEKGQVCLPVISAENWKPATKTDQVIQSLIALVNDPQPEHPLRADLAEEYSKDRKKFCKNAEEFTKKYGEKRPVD
# [3] = molecular target: T3, ITCH (Homo sapiens, UniProt Q96J02); assay: MALDI-TOF E2/E3 ligase assay (mono-ubiquitin consumption), UBE1/UBE2D1/ITCH; type: biochemical; conditions: for remaining activity at 10 µM: read-out: Residual Activity (%), UBE1/UBE2D1/ITCH
# T3 construct: ITCH Q96J02 - GST full length; host or cells: E. coli BL21
# T3 sequence (Q96J02 whole entry): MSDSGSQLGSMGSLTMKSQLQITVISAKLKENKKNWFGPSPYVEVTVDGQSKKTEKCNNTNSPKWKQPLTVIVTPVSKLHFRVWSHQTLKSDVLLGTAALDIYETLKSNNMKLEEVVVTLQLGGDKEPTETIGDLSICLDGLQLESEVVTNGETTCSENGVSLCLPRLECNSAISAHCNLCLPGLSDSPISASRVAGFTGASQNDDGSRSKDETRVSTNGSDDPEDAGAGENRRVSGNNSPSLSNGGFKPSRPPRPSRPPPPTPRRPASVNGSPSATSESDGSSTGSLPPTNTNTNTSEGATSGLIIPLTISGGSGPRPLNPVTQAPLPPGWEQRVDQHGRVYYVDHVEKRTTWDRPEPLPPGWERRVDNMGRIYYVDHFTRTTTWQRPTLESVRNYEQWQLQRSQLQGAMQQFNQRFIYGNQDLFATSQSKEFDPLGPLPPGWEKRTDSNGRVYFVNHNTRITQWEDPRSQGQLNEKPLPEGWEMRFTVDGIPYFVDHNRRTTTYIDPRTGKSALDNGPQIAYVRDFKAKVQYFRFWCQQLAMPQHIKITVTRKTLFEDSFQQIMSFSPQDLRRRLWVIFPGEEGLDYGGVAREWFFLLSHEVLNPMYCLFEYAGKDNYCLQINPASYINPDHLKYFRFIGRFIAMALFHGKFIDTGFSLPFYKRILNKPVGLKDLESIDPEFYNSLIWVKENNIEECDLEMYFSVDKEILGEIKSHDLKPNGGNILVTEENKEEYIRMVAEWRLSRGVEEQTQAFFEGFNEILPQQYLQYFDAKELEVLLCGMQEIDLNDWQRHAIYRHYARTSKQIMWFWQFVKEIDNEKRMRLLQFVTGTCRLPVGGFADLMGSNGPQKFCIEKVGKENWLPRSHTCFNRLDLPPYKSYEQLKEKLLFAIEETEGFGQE
# [4] = molecular target: MDM2 (Homo sapiens, UniProt Q00987); assay: MALDI-TOF E2/E3 ligase assay (mono-ubiquitin consumption), UBE1/UBE2D1/MDM2; type: biochemical; conditions: for remaining activity at 10 µM: read-out: Residual Activity (%), UBE1/UBE2D1/MDM2; for Inhibition effect on MDM2 with β-mercaptoethanol (BME) present: initial presence of BME in the MDM2 preparation
# Sequence of MDM2 (Q00987 whole entry): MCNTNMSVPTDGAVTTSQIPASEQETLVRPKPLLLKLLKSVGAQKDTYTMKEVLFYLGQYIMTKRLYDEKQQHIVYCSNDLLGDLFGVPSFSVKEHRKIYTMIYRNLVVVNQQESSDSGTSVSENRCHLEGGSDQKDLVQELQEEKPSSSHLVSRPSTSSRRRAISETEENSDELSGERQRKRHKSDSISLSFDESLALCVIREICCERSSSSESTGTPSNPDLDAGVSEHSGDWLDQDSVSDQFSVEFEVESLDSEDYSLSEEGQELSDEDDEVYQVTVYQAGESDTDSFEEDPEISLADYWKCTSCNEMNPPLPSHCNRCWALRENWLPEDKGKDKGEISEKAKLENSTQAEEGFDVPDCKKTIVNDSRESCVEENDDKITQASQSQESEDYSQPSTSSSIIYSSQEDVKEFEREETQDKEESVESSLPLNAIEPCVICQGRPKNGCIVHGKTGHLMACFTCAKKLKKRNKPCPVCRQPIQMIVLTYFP
# [5] = molecular target: T1, HOIP; type: biochemical
# [6] = tested on: ITCH; set-up: method as in Rossi et al., 2014; conditions: irreversible block; ref Rossi et al., 2014; cited from earlier work
# [7] = HTS single point, 10 μM compound
# [8] = UBE1/UBE2L3/HOIP, compounds pre-incubated 30 min, then ubiquitin 30 or 40 min, four-parameter fit, read-out: IC50 against HOIP
# [9] = UBE1/UBE2D1/ITCH, compounds pre-incubated 30 min, then ubiquitin 30 or 40 min, four-parameter fit, read-out: IC50 against ITCH
# [10] = UBE1/UBE2D1/MDM2, compounds pre-incubated 30 min, then ubiquitin 30 or 40 min, four-parameter fit, read-out: IC50 against MDM2
smiles,measurement,setting,value
N[C@@H](C(=O)N[C@@H]1C(=O)N2C(C(=O)O)=C(CSc3c[nH]nn3)CS[C@H]12)c1ccc(O)cc1 [cefatrizine],remaining activity at 10 µM,[1]; [7],49%
Cc1ccnc2c1NC(=O)c1cccnc1N2C1CC1 [nevirapine],remaining activity at 10 µM,[1]; [7],54.8%
"COc1ccc(CCN)cc1OC [2-(3,4-dimethoxyphenyl) ethanamine]",remaining activity at 10 µM,[1],68.2%
N#CSc1cc(SC#N)c(N)nc1N [PR619],"Hill Slope Values for calculated IC50s, HOIP",[1]; Table S4,7.8
same,IC50,[1]; [8],0.2 µM
same,Covalent modification of E2 enzyme UBE2L3 (in words),[2],extensively modified UBE2L3; also recorded: covalently modified E2 enzymes
same,"Hill Slope Values for calculated IC50s, ITCH",[3]; Table S4,3.14
same,IC50,[3]; [9],0.4 µM
same,"Hill Slope Values for calculated IC50s, MDM2",[4]; Table S4,1.89
same,IC50,[4]; [10],0.6 µM
O=C(NCCN1CCOCC1)c1ccc(Cl)cc1 [moclobemide],remaining activity at 10 µM,[1]; [7],25.9%
C[C@H]1[C@H](NC(=O)/C(=N\OC(C)(C)C(=O)O)c2csc(N)n2)C(=O)N1S(=O)(=O)O [aztreonam],remaining activity at 10 µM,[4]; [7],56.7%
"COc1ccc(C2=N[C@@H](c3ccc(Cl)cc3)[C@@H](c3ccc(Cl)cc3)N2C(=O)N2CCNC(=O)C2)c(OC(C)C)c1 [Nutlin3A, nutlin-3A]",Inhibitory activity toward HOIP in IC50 curves (in words),[1]; 0–100 μM,did not show any inhibitory activity
same,IC50 against HOIP,"[1]; UBE1/UBE2L3/HOIP, compounds pre-incubated 30 min, then ubiquitin 30 or 40 min, four-parameter fit",ambiguous
same,Inhibitory activity toward ITCH in IC50 curves (in words),[3]; 0–100 μM,did not show any inhibitory activity
same,IC50 against ITCH,"[3]; UBE1/UBE2D1/ITCH, compounds pre-incubated 30 min, then ubiquitin 30 or 40 min, four-parameter fit",ambiguous
Cn1c(CCCC(=O)O)nc2cc(N(CCCl)CCCl)ccc21 [bendamustine],IC50,"[1]; IC50 against HOIP, UBE1/UBE2L3/HOIP, compounds pre-incubated 30 min, then ubiquitin 30 or 40 min, four-parameter fit",6.4 µM and 6.3 µM
same,Fold higher activity against HOIP than against ITCH,[1]; from IC50 values,12 fold
same,Fold higher activity against HOIP than against MDM2,[1]; from IC50 values,18 fold
same,remaining activity at 10 µM,[1],6.3%
same,Inhibition of HOIP when paired with UBE2D1 (in words),[5],inhibits HOIP independently from the E2 in use; also recorded: retained its inhibition power
same,IC50,[3],76.8 µM
same,Inhibition of ITCH at 10 μM (in words),[3],did not significantly affect
same,IC50,[4],114 µM
same,Inhibition of MDM2 at 10 μM (in words),[4],did not significantly affect
CN1C(=O)[C@]23CC4=CC=C[C@H](O)[C@H]4N2C(=O)[C@@]1(CO)SS3 [Gliotoxin],"Hill Slope Values for calculated IC50s, HOIP",[1],2.01
same,IC50,[1],2.8 µM
same,"Hill Slope Values for calculated IC50s, ITCH",[3],5.12
same,IC50,[3],30.5 µM
same,"Hill Slope Values for calculated IC50s, MDM2",[4],2.18
same,IC50,[4],0.5 µM
CCCCN1CCCCC1C(=O)Nc1c(C)cccc1C (centres unmarked) [bupivacaine],remaining activity at 10 µM,[1]; [7],66.2%
CCOC(=O)c1ccc(N2NC(=O)/C(=C/c3ccc([N+](=O)[O-])o3)C2=O)cc1 [PYR41],"Hill Slope Values for calculated IC50s, HOIP",[1]; Table S4,3.73
same,IC50,[1]; [8],5.7 µM
same,"Hill Slope Values for calculated IC50s, ITCH",[3]; Table S4,1.22
same,IC50,[3]; [9],11.3 µM
same,"Hill Slope Values for calculated IC50s, MDM2",[4]; Table S4,2.23
same,IC50,[4]; [10],3.1 µM
same,Inhibition effect on MDM2 with β-mercaptoethanol (BME) present,[4],suppressed
Oc1c(Cl)cc(Cl)c(Cl)c1Cc1c(O)c(Cl)cc(Cl)c1Cl [hexachlorophene],remaining activity at 10 µM,[3],22.2%
same,remaining activity at 10 µM,[4],52.4%
OC(Cn1cncn1)(Cn1cncn1)c1ccc(F)cc1F [fluconazole],remaining activity at 10 µM,[1]; [7],46.4%
Cc1[nH]cnc1CN1CCc2c(c3ccccc3n2C)C1=O [alosetron],remaining activity at 10 µM,[3]; [7],58.2%
Oc1ccc(/C=C/c2cc(O)cc(O)c2)cc1 [resveratrol],remaining activity at 10 µM,[1]; [7],62.2%
O=c1c2ccccc2[se]n1-c1ccccc1 [ebselen],remaining activity at 10 µM,[1]; [7],36.2%
CCOc1nc2cccc(C(=O)OC(C)OC(=O)OC3CCCCC3)c2n1Cc1ccc(-c2ccccc2-c2nnn[nH]2)cc1 (centres unmarked) [candesartan cilexetil],inhibition at 10 µM,[4]; [7],> 50%
same,remaining activity at 10 µM,[4]; [7],48.6%
same,IC50,[4]; [10],8.8 µM
NC(=O)c1cnccn1 [pyrazinamide],remaining activity at 10 µM,[1]; [7],49.3%
C=C(CC)C(=O)c1ccc(OCC(=O)O)c(Cl)c1Cl [ethacrynic acid],remaining activity at 10 µM,[3]; [7],29.5%
same,remaining activity at 10 µM,[4]; [7],53.9%
Cc1ccc(S(=O)(=O)/C=C/C#N)cc1 [BAY117082],"Hill Slope Values for calculated IC50s, HOIP",[1]; Table S4,2.48
same,IC50,[1]; [8],2.9 µM
same,Covalent modification of E2 enzyme UBE2L3 (in words),[2],covalently modified E2 enzymes
same,Mass shift of UBE2L3 after incubation with inhibitor,[2],153 Da
same,"Hill Slope Values for calculated IC50s, ITCH",[3]; Table S4,1.23
same,IC50,[3]; [9],25.9 µM
same,"Hill Slope Values for calculated IC50s, MDM2",[4]; Table S4,3.5
same,IC50,[4]; [10],2.4 µM
same,Inhibition effect on MDM2 with β-mercaptoethanol (BME) present,[4],suppressed
CN(C)CCCN1c2ccccc2CCc2ccc(Cl)cc21 [Clomipramine],Inhibition of HOIP at 10 μM (in words),[1]; 10 μM,did not inhibit
same,Concentration achieving complete inhibition of ITCH ubiquitin transthiolation,[6],0.8 mM
same,Inhibition of ITCH at 10 μM (in words),[3],did not inhibit
same,IC50,"[3]; dose-response curve, final concentrations between 2mM and 7 µM, read-out: IC50 against ITCH",503 µM and ~500 µM
same,Inhibition of MDM2 at 10 μM (in words),[4],did not inhibit
